These results are taken from US20230167088A1, “1-PYRAZINYLPYRAZOLYL-3-OXYALKYL ACIDS AND THEIR DERIVATIVES, AND THEIR USE FOR CONTROL OF UNDESIRED PLANT GROWTH” (BAYER AKTIENGESELLSCHAFT, priority 2020, published 2023).

One test deals with ECHCG. Put plainly: Herbicidal pre-emergence action 2b (doubly sown, 1280 g/ha). As to conditions: doubly sown pots, dosage 1280 g/ha, visual scoring after about 3 weeks. The test is classed as in vivo, Echinochloa crus-galli. The source says:
(§1) [table] b) Seeds of mono- and dicotyledonous weed plants are placed in plastic pots in sandy loam soil (doubly sown with one species each of mono- or dicotyledonous weed plants per pot) and covered with soil. The compounds of the invention, formulated in the form of wettable powders (WP) or as emulsion concentrates (EC), are then applied onto the surface of the covering soil as aqueous suspension or emulsion with addition of 0.5% additive at a water application rate equivalent to 600 litres per hectare. After the treatment, the pots are placed in a greenhouse and kept under good growth conditions for the trial plants. After about 3 weeks, the effect of the preparations is scored visually in comparison with untreated controls as percentages. For example, 100% activity=the plants have died, 0% activity=like control plants. Tables B16 to B21 below show the effects of selected compounds of the general formula (I) according to Tables 1 and 2 on various harmful plants and at an application rate corresponding to 1280 g/ha, which were obtained by the experimental procedure mentioned above.

The subject of test [1] is AMARE. The test is described as above. The test is classed as in vivo, Amaranthus retroflexus. As to conditions: doubly sown pots, dosage 1280 g/ha, visual scoring after about 3 weeks.
Source text: as §1

Test [2] concerns ALOMY. As to the kind of experiment: Herbicidal pre-emergence action 2a (greenhouse pots, visual scoring). The class given is in vivo, Alopecurus myosuroides. Conditions: dosage 320 g/ha, visual scoring after about 3 weeks. The text has this: (§2) [table] a) Seeds of monocotyledonous and dicotyledonous weed plants and crop plants are placed in plastic or organic plant pots and covered with soil. The compounds of the invention, formulated in the form of wettable powders (WP) or as emulsion concentrates (EC), are then applied onto the surface of the covering soil as aqueous suspension or emulsion with addition of 0.5% additive at a water application rate of 600 1/ha (converted). After the treatment, the pots are placed in a greenhouse and kept under good growth conditions for the trial plants. After about 3 weeks, the effect of the preparations is scored visually in comparison with untreated controls as percentages. For example, 100% activity=the plants have died, 0% activity=like control plants. Tables B1 to B15 below show the effects of selected compounds of the general formula (I) according to Tables 1 and 2 on various harmful plants and an application rate corresponding to 320 g/ha and/or 80 g/ha, which were obtained by the experimental procedure mentioned above.

Test [3] relates to AMARE. Put plainly: Herbicidal post-emergence action 1a (greenhouse pots, visual rating). Conditions: visual rating about 3 weeks after treatment. The test is classed as in vivo, Amaranthus retroflexus. As to the method: (§3) [table] a) Seeds of monocotyledonous and dicotyledonous weeds and crop plants are placed in sandy loam in plastic or organic plant pots, covered with soil and cultivated in a greenhouse under controlled growth conditions. 2 to 3 weeks after sowing, the test plants are treated at the one-leaf stage. The compounds of the invention, formulated in the form of wettable powders (WP) or as emulsion concentrates (EC), are then sprayed onto the green parts of the plants as aqueous suspension or emulsion with addition of 0.5% additive at a water application rate of 600 1/ha (converted). After the test plants have been kept in the greenhouse under optimum growth conditions for about 3 weeks, the activity of the preparations is rated visually in comparison to untreated controls. For example, 100% activity=the plants have died, 0% activity=like control plants. Tables A1 to A15 below show the effects of selected compounds of the general formula (I) according to Tables 1 and 2 on various harmful plants and an application rate corresponding to 320 g/ha and/or 80 g/ha, which were obtained by the experimental procedure mentioned above.

Test [4] deals with AMARE. As to the kind of experiment: Herbicidal pre-emergence action 2a (greenhouse pots, visual scoring). The class given is in vivo, Amaranthus retroflexus. Conditions: dosage 320 g/ha, visual scoring after about 3 weeks vs untreated controls.
Source text: as §2

The subject of another test is PHBPU. As to the kind of experiment: Herbicidal post-emergence action 1a (greenhouse pots, visual rating). The class given is in vivo, Pharbitis purpurea. As to conditions: dosage 80 g/ha, visual rating about 3 weeks after treatment. The protocol:
as §3

Another test relates to POLCO. The description is as above. Conditions: dosage 320 g/ha, visual rating about 3 weeks after treatment. The class given is in vivo, Polygonum convolvulus. The protocol:
as §3

A further test deals with LOLRI. As to the kind of experiment: Herbicidal pre-emergence action 2a (greenhouse pots, visual scoring). The test is classed as in vivo, Lolium rigidum. Conditions: dosage 320 g/ha, visual scoring after about 3 weeks vs untreated controls.
Source text: as §2

Test [5] has as its system VERPE. Described as above. The class given is in vivo, Veronica persica. As to conditions: dosage 320 g/ha, visual scoring after about 3 weeks vs untreated controls.
Source text: as §2

The test system of test [6] is ALOMY. Put plainly: Herbicidal post-emergence action 1a (greenhouse pots, visual rating). The class given is in vivo, Alopecurus myosuroides. As to conditions: Dosage 80 g/ha; rated visually about 3 weeks after treatment; 100% = plants have died, 0% = like control plants. As to the method:
as §3

Test [7] deals with AVEFA. The description is as above. The test is classed as in vivo, Avena fatua. As to conditions: Dosage 80 g/ha; rated visually about 3 weeks after treatment; 100% = plants have died, 0% = like control plants. As to the method: as §3
Test [8] relates to AVEFA. Put plainly: Herbicidal pre-emergence action 2a (greenhouse pots, visual scoring). Conditions: dosage 320 g/ha, visual scoring after about 3 weeks. The test is classed as in vivo, Avena fatua.
Source text: as §2

In a further test the test system is SETVI. Described as above. The test is classed as in vivo, Setaria viridis. Conditions: dosage 320 g/ha, visual scoring after about 3 weeks vs untreated controls.
Source text: as §2

A further test relates to POAAN. As to the kind of experiment: Herbicidal pre-emergence action 2b (doubly sown, 1280 g/ha). The test is classed as in vivo, Poa annua. Conditions: doubly sown pots, dosage 1280 g/ha, visual scoring after about 3 weeks.
Source text: as §1

For another test, the system named is MATIN. The test is described as above. As to conditions: doubly sown pots, dosage 1280 g/ha, visual scoring after about 3 weeks. The class given is in vivo, Matricaria inodora.
Source text: as §1

In another test the test system is STEME. The description is as above. The class given is in vivo, Stellaria media. As to conditions: doubly sown pots, dosage 1280 g/ha, visual scoring after about 3 weeks.
Source text: as §1

The test system of test [9] is VERPE. Put plainly: Herbicidal post-emergence action 1a (greenhouse pots, visual rating). The class given is in vivo, Veronica persica. As to conditions: dosage 320 g/ha, visual rating about 3 weeks after treatment. As to the method: as §3

Molecules are shown by their SMILES.

Take `COC(=O)COc1nn(-c2cnccn2)c(-c2ccc(F)c(F)c2)c1C#N` [Example I-23]: the “Pre-emergence action at 1280 g/ha against ECHCG in %” value with ECHCG is 100%. In the test with AMARE [1], the “Pre-emergence action at 1280 g/ha against AMARE in %” value was found to be 100%.

Regarding `COC(=O)CCNC(=O)[C@@H](C)Oc1nn(-c2cnccn2)c(-c2ccc(F)nc2)c1Br` [II-02], the “Pre-emergence action against ALOMY in %” value with ALOMY [2] was 80%.

In the case of `COC(=O)CNC(=O)COc1nn(-c2cnccn2)c(-c2ccc(F)nc2)c1Br` [II-08], the “Post-emergence action against AMARE in %” value in the test on AMARE [3] (dosage 80 g/ha) came out at 80%. In addition, in the test on AMARE [4], the “Pre-emergence action against AMARE in %” value is 90%.

For `O=C(COc1nn(-c2cnccn2)c(-c2ccc(F)nc2)c1Br)NCC1CC1` [II-10], the “Post-emergence action against AMARE in %” value with AMARE [3] (dosage 80 g/ha) came out at 80%. Also, in the test with PHBPU, the “Post-emergence action against PHBPU in %” value was 80%.

Take `COC(=O)[C@@H](C)Oc1nn(-c2nccnc2F)c(-c2ccc(F)nc2)c1Br` [Example I-80]: the “Post-emergence action against AMARE in %” value in the test with AMARE [3] (dosage 80 g/ha) and in the test with AMARE [3] (dosage 320 g/ha) was 80% each time. For the same compound, the “Post-emergence action against POLCO in %” value in the test with POLCO came to 80%. In addition, the “Pre-emergence action against ALOMY in %” value in the test with ALOMY [2] was 100%. In the test on LOLRI, the “Pre-emergence action against LOLRI in %” value was determined as 80%. Moreover, the “Pre-emergence action against AMARE in %” value in the test with AMARE [4] was determined as 100%. In addition, in the test with VERPE [5], the “Pre-emergence action against VERPE in %” value is given as 80%.

For `COC(=O)[C@@H](C)Oc1nn(-c2cnccn2)c(-c2ccc(F)nc2)c1C1CC1` [Example I-87], the “Post-emergence action against ALOMY in %” value with ALOMY [6] worked out at 100%. Further, the “Post-emergence action against AVEFA in %” value in the test with AVEFA [7] is recorded as 90%. For the same compound, the “Post-emergence action against AMARE in %” value in the test on AMARE [3] (dosage 80 g/ha) is 80%. The “Pre-emergence action against ALOMY in %” value in the test on ALOMY [2] was found to be 100%. Besides, the “Pre-emergence action against AVEFA in %” value in the test with AVEFA [8] is 90%. Moreover, the “Pre-emergence action against LOLRI in %” value with LOLRI is 100%. Further, the “Pre-emergence action against SETVI in %” value in the test with SETVI is 100%. Further, the “Pre-emergence action against VERPE in %” value in the test on VERPE [5] is recorded as 80%.

On to `C=CCNC(=O)COc1nn(-c2cnccn2)c(-c2cccc(F)c2)c1Br` [II-01], for which, in the test on POAAN, the “Pre-emergence action at 1280 g/ha against POAAN in %” value was determined as 100%. The “Pre-emergence action at 1280 g/ha against ECHCG in %” value in the test on ECHCG is given as 90%. The “Pre-emergence action at 1280 g/ha against AMARE in %” value in the test with AMARE [1] turned out to be 100%. Also, the “Pre-emergence action at 1280 g/ha against MATIN in %” value in the test with MATIN came out at 100%. Also, the “Pre-emergence action at 1280 g/ha against STEME in %” value in the test with STEME stood at 100%.

As for `C[C@@H](Oc1nn(-c2cnccn2)c(-c2ccc(F)nc2)c1Br)C(=O)NCC1CC1` [II-06], the “Pre-emergence action against VERPE in %” value in the test with VERPE [5] was found to be 100%.

In the case of `COC(=O)COc1nn(-c2cnccn2)c(-c2ccc(F)nc2)c1C1CC1` [Example I-84], the “Post-emergence action against AMARE in %” value in the test on AMARE [3] (dosage 80 g/ha) and in the test with AMARE [3] (dosage 320 g/ha) was 90% in each case. In addition, the “Post-emergence action against POLCO in %” value with POLCO was determined as 80%. In the test with VERPE [9], the “Post-emergence action against VERPE in %” value came out at 80%. In addition, the “Pre-emergence action against AMARE in %” value with AMARE [4] turned out to be 90%.
